The test system of data set [1] is cucumber gray mold fungus (Botrytis cinerea). Nature of the data set: Cucumber gray mold control test (foliar spray on cucumber seedlings). The note with it: in Cucumis sativus, 96 h, read-out: control value.
The test system of data set [2] is Apple scab fungus (Venturia inaequalis). Nature of the data set: Apple scab control test (foliar spray on apple seedlings). It is filed as in vivo. The note with it: 125 ppm active ingredient, sprayed on apple seedlings (variety Orin) before inoculation, vs untreated. The method, then: The dilution was sprayed to apple seedlings (variety “Orin”, 3 to 4 leaf stage) grown in clay pots. […] The control value was calculated by the following equation. [formula]

The test system of data set [3] is Tomato late blight fungus (Phytophthora infestans). Nature of the data set: whole plant or invertebrate. It is filed as in vivo. Conditions: foliar, 96 h, read-out: control value.
For data set [4], the system named is wheat leaf rust fungus (Puccinia recondita). Put plainly: Wheat leaf rust control test (foliar spray on wheat seedlings). Conditions: 240 h, 125 ppm active ingredient, sprayed on wheat seedlings (variety Norin 61) before inoculation, 10 days, vs untreated. The format is in vivo.

Structures can show the parent of a compound that is named as a salt.

For `N=C(N)c1ccc(OCCCCn2ccn(CCCCOc3ccc(C(=N)N)cc3)c2=N)cc1` (as salt: hydrochloride) [compound 36, 4-[4-[3-[4-(4-carbamimidoylphenoxy)butyl]-2-imino-imidazol-1-yl]butoxy]benzamidine], the melting point (commonly the temperature, or range, at which the solid turns liquid) lay within 178 to 180 °C.

`N=C(NCCCc1cc2cc(C(=N)N)ccc2o1)NCCCc1cc2cc(C(=N)N)ccc2o1` (as salt: hydrochloride) [compound 80] yielded a melting point of 174 to 182 °C.

Compound `N=C(NCCCOc1ccc(C(=N)N)c(F)c1)NCCCOc1ccc(C(=N)N)c(F)c1` (as salt: hydrochloride) [compound 82] registered a melting point of 181 to 185 °C.

The compound `Cc1cc(C(=N)N)ccc1OCCCCNC(=N)NCCCCOc1ccc(C(=N)N)cc1C` (as salt: hydrochloride) [compound 84] came in with a melting point of 171 to 180 °C.

As to `N=C(N)c1ccc(OCCCCCn2ccn(CCOc3ccc(C(=N)N)cc3)c2=N)cc1` (as salt: hydrochloride) [compound 93], the melting point was in the range of 183 to 187 °C.

Consider `N=C(N)c1ccc(OCCCn2ccn(CCCOc3ccc(C(=N)N)cc3Cl)c2=N)c(Cl)c1` (as salt: hydrochloride) [compound 99], for which the melting point lay within 184 to 190 °C.

In the case of `N=C(N)c1ccc(OCCCn2ccn(CCCOc3ccc(C(=N)N)c(F)c3)c2=N)cc1F` (as salt: hydrochloride) [compound 103], the melting point was 183 to 187 °C.

`Cc1c(C)n(CCCOc2ccc(C(=N)N)cc2)c(=N)n1CCCOc1ccc(C(=N)N)cc1` (as salt: hydrochloride) [compound 109] showed a melting point of 188 to 199 °C.

On to `Cc1cn(CCCOc2ccc(C(=N)N)cc2)c(=N)n1CCCOc1ccc(C(=N)N)cc1` (as salt: hydrochloride) [compound 114], for which the melting point lay in the range of 182 to 186 °C.

As to `N=C(N)c1ccc(OCCCn2ccn(CCCc3cc4cc(C(=N)N)ccc4o3)c2=N)cc1` (as salt: hydrochloride) [compound 126], the melting point is 227 to 236 °C.

`N=C(NCC/C=C/c1ccc(C(=N)N)cc1)NCC/C=C/c1ccc(C(=N)N)cc1` (as salt: hydrochloride) [compound 151] had a melting point of 179 to 181 °C.

On to `N=C(NCC#Cc1ccc(C(=N)N)cc1)NCC#Cc1ccc(C(=N)N)cc1` (as salt: hydrochloride) [compound 155], for which the melting point stood at 220 °C.

Regarding `N=C(N)c1ccc(OCCCn2ccn(CCCSc3ccc(C(=N)N)cc3)c2=N)cc1` (as salt: hydrochloride) [compound 173], the melting point is 168 to 171 °C.

Turning to `N=C(N)c1ccc(SCCCn2ccn(CCCSc3ccc(C(=N)N)cc3)c2=N)cc1` (as salt: hydrochloride) [compound 181], the melting point fell in the range of 169 to 172 °C.

Consider `N=C(NCCOCc1ccc(C(=N)N)cc1)NCCOCc1ccc(C(=N)N)cc1` (as salt: hydrochloride) [compound 226], for which the melting point was in the range of 262 to 267 °C.

In the case of `N=C(NCCCOCc1ccc(C(=N)N)cc1)NCCCOc1ccc(C(=N)N)cc1` (as salt: trifluoroacetate) [compound 143], the melting point was 192 to 197 °C.

Take `N/C(=N\O)c1ccc(OCCCn2ccn(CCCOc3ccc(/C(N)=N/O)cc3)c2=NC(=O)C(F)(F)F)cc1` [compound 55, N-[1,3-bis[3-[4-[N′-hydroxycarbamimidoyl]phenoxy]propyl]-1,3-dihydro-2H-imidazol-2-ylidene]-2,2,2-trifluoroacetamide]: the melting point fell in the range of 187 to 201 °C.

`N=C(N)NCCCCCCCCCNC(=N)NCCOc1ccc(C(=N)N)cc1` [compound 234]: the pest or weed control at 125 ppm in data set [1], in data set [2], in data set [3] and in data set [4] was at least 75% each time.

On to `N=C(N)NCCCCCCCCNC(=N)NCCOc1ccc(C2=NCCCN2)cc1` [compound 240], for which the pest or weed control at 125 ppm in data set [1], in data set [2], in data set [3] and in data set [4] was at least 75% throughout.

As to `N=C(N)NCCCCCCCCCNC(=N)NCCOc1ccc(C2=NCCCN2)cc1` [compound 242], the pest or weed control at 125 ppm in data set [1], in data set [2], in data set [3] and in data set [4] was at least 75% in each case.

For `N=C(N)NCCCCCCCCNC(=N)NCCCCOc1ccc(C2=NCCN2)cc1` [compound 246], the pest or weed control at 125 ppm in data set [1], in data set [2], in data set [3] and in data set [4] was at least 75% each time.

On to `N=C(N)NCCCCCCCCNC(=N)NCCCCOc1ccc(C2=NCCCCN2)cc1` [compound 254], for which the pest or weed control at 125 ppm in data set [1], in data set [2], in data set [3] and in data set [4] was at least 75% in each case.

`CC1(C)CNC(c2ccc(OCCCCNC(=N)NCCCCCCCCNC(=N)N)cc2)=N1` [compound 256]: the pest or weed control at 125 ppm in data set [1], in data set [2], in data set [3] and in data set [4] was at least 75% throughout.

For the compound `N=C(N)NCCCCCCCCNC(=N)N1CCC(Oc2ccc(C3=NCCCN3)cc2)CC1` [compound 264], the pest or weed control at 125 ppm in data set [1], in data set [2], in data set [3] and in data set [4] was at least 75% each time.

As to `N=C(N)NCCCCCCCCNC(=N)NCCc1ccc(C2=NCCCN2)cc1` [compound 266], the pest or weed control at 125 ppm in data set [1], in data set [2], in data set [3] and in data set [4] was at least 75% throughout.

Take `N=C(N)NCCCCCCCCNC(=N)NCCCc1ccc(C2=NCCCN2)cn1` [compound 273]: the pest or weed control at 125 ppm in data set [1], in data set [2], in data set [3] and in data set [4] was at least 75% in each case.

Consider `N=C(N)NCCCCCCCCNC(=N)NCCCCOc1ccc(C2=NCCCN2)cn1` [compound 275], for which the pest or weed control at 125 ppm in data set [1], in data set [2], in data set [3] and in data set [4] was at least 75% in each case.

With `N=C(N)NCCCCCCCNC(=N)NCCCCOc1ccc(C2=NCC(N)CN2)cc1` (stereo not shown) [compound 277], the pest or weed control at 125 ppm in data set [1], in data set [2], in data set [3] and in data set [4] was at least 75% each time.

As to `N=C(N)NCCCCCCCCNC(=N)NCCCCOc1ccc(C2=NCC(N)CN2)cc1` (stereo not shown) [compound 279], the pest or weed control at 125 ppm in data set [1], in data set [2], in data set [3] and in data set [4] was at least 75% each time.

As to `N=C(N)NCCCCCCCCNC(=N)NCCOc1ccc(C2=NCC(N)CN2)cc1` (stereo not shown) [compound 285], the pest or weed control at 125 ppm in data set [1], in data set [2], in data set [3] and in data set [4] was at least 75% in each case.

In the case of `N=C(N)NCCCCCCCCNC(=N)NCCOc1ccc(C2=NCCCN2)nc1` [compound 288], the pest or weed control at 125 ppm in data set [1], in data set [2], in data set [3] and in data set [4] was at least 75% throughout.

Take `N=C(NCCCCCCCCNC1=NCCN1)NCCCOc1ccc(C(=N)N)cc1` [compound 298]: the pest or weed control at 125 ppm in data set [1], in data set [2], in data set [3] and in data set [4] was at least 75% throughout.

Take `CN1CCCN=C1c1ccc(OCCNC(=N)NCCCCCCCCNC(=N)N)cc1` [compound 300]: the pest or weed control at 125 ppm in data set [1], in data set [2], in data set [3] and in data set [4] was at least 75% each time.

For the compound `N=C(N)NCCCCCCCCn1ccn(CCOc2ccc(C3=NCC(N)CN3)cc2)c1=N` (stereo not shown) [compound 302], the pest or weed control at 125 ppm in data set [1], in data set [2], in data set [3] and in data set [4] was at least 75% throughout.
